Data on one compound can be found in article PMC12748958 (Nature Communications, 2025).

The assay deals with T1, PsiR-M2 (Agrobacterium fabrum, UniProt A9CH24, R109G/V134A).
T1 sequence (A9CH24 1-359 R109G/V134A): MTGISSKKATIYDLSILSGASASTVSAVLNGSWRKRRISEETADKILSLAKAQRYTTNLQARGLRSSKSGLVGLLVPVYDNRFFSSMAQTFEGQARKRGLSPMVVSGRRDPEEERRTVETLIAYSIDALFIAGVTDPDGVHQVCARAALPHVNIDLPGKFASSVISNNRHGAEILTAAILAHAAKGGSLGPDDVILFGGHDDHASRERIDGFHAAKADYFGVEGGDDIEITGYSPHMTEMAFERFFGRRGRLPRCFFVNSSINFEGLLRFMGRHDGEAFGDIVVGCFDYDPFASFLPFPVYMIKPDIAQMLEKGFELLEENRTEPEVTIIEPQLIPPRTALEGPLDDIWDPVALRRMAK
Description: microscale thermophoresis. Type of assay: binding.

As for `O=C(CO)[C@H](O)[C@H](O)[C@H](O)CO` [D-allulose], the “microscale thermophoresis (MST) on purified protein” value is “After purifying PsiR-WT, M2, and M4 from E. coli BL21(DE3) via His-tag affinity chromatography”.
